Test results from patent US20220193170A1, “Nutraceutical Reduction Prevention and/or Reversion of Multiple Sclerosis” (Therapeutic Solutions International, Inc., priority 2020, published 2022).

Tests used:
[1] = system: oxygen-induced retinopathy; details: OIR mice; UDCA 50 mg/kg, P7-P17; cited from earlier work
[2] = system: Experimental autoimmune encephalomyelitis; experiment: Experimental autoimmune encephalomyelitis (EAE) clinical score; format: in vivo; details: female SJL/J mice, by gavage, alone and/or with Copaxone, observed at days 10, 20 and 30; bar graph
Method: (§1) Experimental autoimmune encephalomyelitis was induced in female SJL/J (6-8 weeks old) by injection PLP139-151 peptide (50 μg) emulsified in complete Freund's adjuvant (BD Diagnostics), containing killed Mycobacterium tuberculosis (400 μg/ml) in a volume of (50 μl per area). Animals were randomized to receive by QuadraMune™ by gavage, and/or Copaxone. Mice where observed for symptoms at days 10, 20 and 30.
Clinical scores (0, no symptoms; 1, limp tail; 2, partial paralysis of hind limbs; 3, complete paralysis of hind limbs or partial hind and front limb paralysis; 4, tetraparalysis; 5, moribund; 6, death).
as §1, with “PLP^139-151” for “PLP139-151”, “pterostilbene” for “by QuadraMune™”
as §1, with “sulforaphane” for “by QuadraMune™”, “Mice where observed for symptoms at days 10, 20 and 30.” left out

[3] = system: CD4+, CD25+, FoxP3+ Treg cells; details: responding patients; cited from earlier work
IL-6 production = details: cited from earlier work
osteoporosis = details: OVX mice, vs PBS treatment group, cited from earlier work
acute pancreatitis = details: AP mice gavaged with TUDCA; cited from earlier work
osteoblasts = details: in vitro, cited from earlier work
Treg = details: in vivo; cited from earlier work
[4] = serum, not significantly different

Molecule: C[C@H](CCC(=O)NCC(=O)O)[C@H]1CC[C@H]2[C@@H]3[C@@H](O)C[C@@H]4C[C@H](O)CC[C@]4(C)[C@H]3CC[C@]12C [GUDCA]
- extension of neovascular and avascular areas [1]: no changes

Molecule: CC1=CC(=O)C(C(C)C)=CC1=O [thymoquinone]
- EAE Score [2]: reduction in EAE Score

Molecule: glatiramer acetate
- CD4+, CD25+, FoxP3+ Treg cells in peripheral blood and cerebral spinal fluid [3]: increased levels

Molecule: C[C@H](CCC(=O)NCCS(=O)(=O)O)[C@H]1CC[C@H]2[C@@H]3[C@@H](O)C[C@@H]4C[C@H](O)CC[C@]4(C)[C@H]3CC[C@]12C [TUDCA, tauroursodeoxycholic acid]
- Inflammation and IL-6 production triggered by infection with Brucella abortus (IL-6 production): reduced
- CTX level (osteoporosis; [4]): lower
- PINP level (osteoporosis; [4]): higher
- percentage bone volume with respect to total bone volume, bone mineral density, distal femur trabeculae (osteoporosis): increased
- trabecular structures in the distal femur (micro-CT and histology) (osteoporosis): preserved more trabecular structures
- expression of farnesoid-x-receptor (FXR) and its target gene FGF15 (acute pancreatitis): downregulated
- pancreatic and intestinal barrier function injury (acute pancreatitis): mitigated
- extension of neovascular and avascular areas [1]: no changes
- proliferation and viability of osteoblasts and osteoblast differentiation and mineralization (osteoblasts; 100 nM, 1 μM): significantly increased
- detrimental effects of methylprednisolone (methylprednisolone-induced osteoblast apoptosis) (osteoblasts): neutralized

Molecule: C[S+]([O-])CCCCN=C=S (stereo not drawn) [sulforaphane]
- EAE Score [2]: reduction in EAE Score

Molecule: Interferon beta
- Treg activity after initiation of therapy (Treg): renormalization of Treg activity
